Experimental data as given in patent US20130197047A1, “OPHTHALMIC COMPOSITIONS OF PARASYMPATHETIC STIMULANTS AND ANTI-INFLAMMATORIES FOR USE IN THE TREATMENT OF PRESBYOPIA” (priority 2006, published 2013).
Where a name gives a salt, the structure may show the parent alone.

What was measured:
[1] = tested on: presbyopic patient; settings: does not solve blurred distant vision; cited from earlier work
[2] = tested on: Presbiopic patients; experiment: Topical eye-drop treatment of presbyopic patients (100 patients, 4 groups), follow-up of near and distant visual sharpness and tolerance; type: in vivo, human; settings: of 100 patients treated
Protocol: 100 Presbiopic patients of both sexes, of age 40 to 65, were treated with the compositions of the invention. Exclusion criteria concerned patients with myopia or astigmatism higher than 1 dioptre, and hypermetropia greater than 3 dioptres as well as those with corneal, lens and vitreous opacitis, and chronic general pathologies. 4 Different groups of presbyopic population were differentiated: Group 1: Pure presbyopics Group 2: Presbyopics with hypermetropia Group 3: Presbyopics with phorias Group 4: Presbyopics with glaucoma Patients of all groups were treated with eye drops of different concentrations and combinations of medicaments acting on the ocular sympathetic innervation. Pure presbyopic patients (Group 1) were topically treated with 1% pilocarpine hydrochloride+0.5% diclofenac sodium, at 6 hr intervals during the daily hours; treatment was suspended at night. Presbyopics with hypermetropia (Group 2) were topically treated with 2% pilocarpine hydrochloride+0.5% diclofenac sodium, at 6 hr intervals during the daily hours. […] All patients were monitored after one week treatment and monthly during the first three months to evaluate dosage and side-effects. […]

SMILES	result of topical application to presbyopic patient [1]	patients showed intolerance (diarrhoea and dyspepsia) [2]
CNC(=O)Oc1ccc2c(c1)[C@]1(C)CCN(C)[C@@H]1N2C [physostygmine]	poor results	–
CC[C@@H]1C(=O)OC[C@@H]1Cc1cncn1C [pilocarpine hydrochloride]	–	2 patients
